Publication PMC3393770 (Chembiochem, 2012)
Like-named read-outs stand apart in the source and are kept apart here.

Target: T1, Saccharomyces cerevisiae 20S proteasome, β5 subunit (chymotrypsin-like activity) (Saccharomyces cerevisiae, UniProt P23724+P30656)
T1 sequence (P30656 76-287): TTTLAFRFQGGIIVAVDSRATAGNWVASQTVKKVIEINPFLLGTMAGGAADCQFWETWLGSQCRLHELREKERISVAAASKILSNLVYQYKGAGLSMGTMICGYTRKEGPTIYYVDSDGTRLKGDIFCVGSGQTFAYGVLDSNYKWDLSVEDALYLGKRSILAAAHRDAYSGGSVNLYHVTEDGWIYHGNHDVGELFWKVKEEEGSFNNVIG
T1 sequence (P23724 20-241): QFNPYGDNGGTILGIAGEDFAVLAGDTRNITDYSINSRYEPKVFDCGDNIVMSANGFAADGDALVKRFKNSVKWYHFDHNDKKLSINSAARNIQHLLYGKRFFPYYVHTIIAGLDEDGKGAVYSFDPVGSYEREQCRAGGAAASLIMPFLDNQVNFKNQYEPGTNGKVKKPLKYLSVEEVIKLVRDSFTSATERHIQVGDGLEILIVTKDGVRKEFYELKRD
Assay: […] proteasome β[…]
Assay type: biochemical

[1] = read-out: Proteasome Inhibition(IC50), chymotrypsin-like site, 0.5 μg/mL proteasome, covalent (α,β-epoxyketone, Thr1)

IC50 [1] [nM] | SMILES | IC50 [nM]
2.5 ± 0.3 | CCCCCC(=O)N[C@H](C(=O)N[C@@H](CC[S+](C)[O-])C(=O)N[C@@H](CC(C)C)C(=O)[C@@]1(C)CO1)C(C)C (mixture of isomers) [compound 1, carmaphycin A] | –
2.6 ± 0.9 | CCCCCC(=O)N[C@H](C(=O)N[C@@H](CCS(C)(=O)=O)C(=O)N[C@@H](CC(C)C)C(=O)[C@@]1(C)CO1)C(C)C [compound 2, carmaphycin B] | –
– | C[C@@]12OC(=O)[C@]1([C@@H](O)[C@@H]1C=CCCC1)NC(=O)[C@@H]2CCCl [compound 11, salinosporamide A] | 1.4 ± 0.2
